Source: US9346770B2, “Compounds having activating effect on subtypes of peroxisome proliferator-activated receptors and its preparation method and uses” (ZHEJIANG HISUN PHARMACEUTICAL CO., LTD., priority 2010, dated 2016)

Columns and labels:
Type in all cases: cell-based
PPARα = PPARα (Homo sapiens (Human), UniProt Q07869); assay: Nuclear receptor reporter gene (luciferase) screening model, PPARα activation in HepG2 cells; conditions: for Experiment results (relative activation fold) PPARα: HepG2, solvent control = 1; for EC50: HepG2 reporter gene, 6 concentrations
Sequence of PPARα (Q07869 whole entry, species assumed): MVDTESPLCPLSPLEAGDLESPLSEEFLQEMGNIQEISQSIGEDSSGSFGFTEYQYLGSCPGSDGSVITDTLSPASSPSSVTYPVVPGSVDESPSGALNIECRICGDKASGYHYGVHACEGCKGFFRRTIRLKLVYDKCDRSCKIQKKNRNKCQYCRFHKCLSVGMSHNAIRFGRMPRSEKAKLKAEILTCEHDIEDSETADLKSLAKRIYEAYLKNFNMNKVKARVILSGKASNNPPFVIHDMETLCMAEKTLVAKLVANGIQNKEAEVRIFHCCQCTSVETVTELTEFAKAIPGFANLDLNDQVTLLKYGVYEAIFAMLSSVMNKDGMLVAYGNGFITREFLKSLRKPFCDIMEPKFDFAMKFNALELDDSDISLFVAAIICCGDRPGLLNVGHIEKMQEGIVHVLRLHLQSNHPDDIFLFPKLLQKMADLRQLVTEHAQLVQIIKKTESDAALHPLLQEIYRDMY
Sequence of PPARα (P19793 whole entry partner, species assumed): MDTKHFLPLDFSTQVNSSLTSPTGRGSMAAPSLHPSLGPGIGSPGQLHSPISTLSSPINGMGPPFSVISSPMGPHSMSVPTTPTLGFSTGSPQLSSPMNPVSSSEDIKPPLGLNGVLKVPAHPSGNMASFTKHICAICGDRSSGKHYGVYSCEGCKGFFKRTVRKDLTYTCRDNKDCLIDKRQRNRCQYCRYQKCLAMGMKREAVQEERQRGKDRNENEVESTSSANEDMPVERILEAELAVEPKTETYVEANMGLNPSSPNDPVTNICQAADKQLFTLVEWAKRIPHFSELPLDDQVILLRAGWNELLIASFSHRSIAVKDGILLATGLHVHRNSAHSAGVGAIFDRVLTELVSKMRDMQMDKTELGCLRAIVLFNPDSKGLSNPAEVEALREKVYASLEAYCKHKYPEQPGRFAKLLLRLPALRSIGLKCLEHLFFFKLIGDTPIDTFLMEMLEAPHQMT
Excerpt: (§1) Using a reporter gene method, a screening model for screening a nuclear receptor agonist in living cells is designed on the basis of the principal that a nuclear receptor can activate transcription of its downstream gene after being activated. A reporter gene plasmid is constructed, in which the DNA binding sequence for the nuclear receptor (NRE) is inserted at the upstream of a luciferase gene, such that the expression of the luciferase gene is regulated by the nuclear receptor. The reporter gene plasmid is transferred into a cell simultaneously with the nuclear receptor. The nuclear receptor will be activated when a nuclear receptor agonist presents in the cell culture medium. The receptor being activated can induce the expression of the luciferase gene, while the amount of generated luciferase can be determined with its luminescent substrate. In this way, the intensity of activation of the nuclear receptor by the compound can be determined by observing the luminescence intensity. For the calibration of the experimental error caused by factors such as transfection efficiency, amount of inoculated cells, toxicity of the compound, etc, a GFP plasmid is co-transfected simultaneously as the internal reference. In the analysis of the experimental results, the luminescent values tested for all wells are calibrated with GFP values. The experimental results are expressed as relative activation fold, with a value of 1 for the solvent control. The greater the fold is, the higher the activation capacity represents.
(§2) The detailed procedure is described as follows:
(§3) Hepatocarcinoma cell HepG2 (from ATCC, American Type Culture Collection) was cultured in a DMEM medium supplemented with 10% heat-inactivated fetal bovine serum (FBS, Invitogen, Grand Island, N.Y., USA) in a T-75 culture flask (Greiner, Germany) placed in a 5% CO2 incubator at 37° C. and 100% relative humidity.
(§4) On the next day, when the cells in the 96-well culture plate grew up to 50-80% confluency, cell transfection was performed. The cell co-transfection system comprised FuGene6 transfection agent (Roche Molecular Biochemicals, Indianapolis, Ind., U.S.A.) and 60 ng DNA (10 ng hRXR, 10 ng pCMV βGal, 10 ng nuclear receptor expression plasmid RXR/PPARα, δ, γ, 30 ng GFP fluorescence reporter gene plasmid, respectively).
(§5) The cell culture medium was discarded immediately after 24 hours of transfection and replaced by 200 μl fresh DMEM medium containing the test medicament (with 10% FBS treated by activated carbon). The final concentration gradients of the test medicament were 10 μM, 5 μM, 1 μM, 0.1 μM, 0.01 μM, 0.001 μM, and 0 μM. 0.05 μM 2-bromostearic acid (purchased from Sigma, USA) was used as the positive control. The final concentration of DMSO in each well was 0.1%.
(§6) After 24 h treatment with the medicament, the cells were lysed with a lysis solution (Cell Culture Lysis buffer, Promega) and centrifuged, and the supernatant was collected. The supernatant was reacted with a fluorescence assay kit (Promega) and counted by a fluorometer (Ascent Fluoroskan FL reader, Thermo Labsystems, Finland), and the relative intensity of luciferase was determined. For the assay of the β-galactosidase activity used in the experiment as the internal reference (the internal reference for calibrating the transfection efficiency), 50 μl of the supernatant was transferred into a fresh microplate, treated with a Promega kit, and the value was read with a microplate reader at a wavelength of 405 nm (Bio-tech Instruments Inc., Winooski, Vt., USA) (Sauerberg, P.; Olsen, G. S.; Jeppesen, L.; Mogensen, J. P. et al., J. Med. Chem., 2007, 50, 1495-1503).
(§7) In the present screening protocol, it was calculated according to the activation of the receptor by the sample at 6 different concentrations.
(§8) The concentration-activity profile of the effects of a compound was fitted by carrying out iterative computation according to the following formula, and corresponding EC50 was calculated: […]

PPARδ = PPARδ (Homo sapiens (Human), UniProt Q03181); assay: Nuclear receptor reporter gene (luciferase) screening model, PPARδ activation in HepG2 cells; conditions: for Experiment results (relative activation fold) PPARδ: HepG2, solvent control = 1; for EC50: HepG2 reporter gene, 6 concentrations
Sequence of PPARδ (Q03181 whole entry, species assumed): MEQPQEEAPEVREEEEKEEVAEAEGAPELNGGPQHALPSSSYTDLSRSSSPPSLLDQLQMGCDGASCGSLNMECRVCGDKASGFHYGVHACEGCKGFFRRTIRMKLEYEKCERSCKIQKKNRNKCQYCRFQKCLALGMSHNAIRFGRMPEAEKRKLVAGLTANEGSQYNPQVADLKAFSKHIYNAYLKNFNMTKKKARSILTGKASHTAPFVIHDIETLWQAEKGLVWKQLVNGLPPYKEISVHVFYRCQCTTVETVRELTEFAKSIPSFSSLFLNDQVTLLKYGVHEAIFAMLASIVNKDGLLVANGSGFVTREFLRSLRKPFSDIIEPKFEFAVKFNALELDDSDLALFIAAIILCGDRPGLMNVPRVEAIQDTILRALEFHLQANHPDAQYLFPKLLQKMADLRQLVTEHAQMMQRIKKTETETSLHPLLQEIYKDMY
Sequence of PPARδ (P19793 whole entry partner, species assumed): as the sequence (P19793 whole entry partner, species assumed) above
Excerpt: as §1, §2, §3, §4, §5, §6, §7, §8

PPARγ = PPARγ (Homo sapiens (Human), UniProt P37231); assay: Nuclear receptor reporter gene (luciferase) screening model, PPARγ activation in HepG2 cells; conditions: for Experiment results (relative activation fold) PPARγ: HepG2, solvent control = 1; for EC50: HepG2 reporter gene, 6 concentrations
Sequence of PPARγ (P37231 whole entry, species assumed): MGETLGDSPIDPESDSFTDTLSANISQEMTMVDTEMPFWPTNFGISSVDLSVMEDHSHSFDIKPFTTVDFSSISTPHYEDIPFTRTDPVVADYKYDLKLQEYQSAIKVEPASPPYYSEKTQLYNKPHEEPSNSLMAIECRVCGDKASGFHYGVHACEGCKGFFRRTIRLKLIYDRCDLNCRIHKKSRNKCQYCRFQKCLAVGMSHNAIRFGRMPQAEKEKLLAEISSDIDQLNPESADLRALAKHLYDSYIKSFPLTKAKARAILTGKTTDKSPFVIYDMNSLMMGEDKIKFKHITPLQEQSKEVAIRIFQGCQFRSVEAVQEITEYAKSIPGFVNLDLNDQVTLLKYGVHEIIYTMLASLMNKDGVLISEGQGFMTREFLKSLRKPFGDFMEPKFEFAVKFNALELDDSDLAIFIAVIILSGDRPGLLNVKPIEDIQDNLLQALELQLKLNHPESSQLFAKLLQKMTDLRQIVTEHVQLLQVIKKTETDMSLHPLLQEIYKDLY
Sequence of PPARγ (P19793 whole entry partner, species assumed): as the sequence (P19793 whole entry partner, species assumed) above
Excerpt: as §1, §2, §3, §4, §5, §6, §7, §8

CCc1cc(OCCc2nc(-c3ccc(C(C)(C)C)cc3)oc2C)ccc1CCC(=O)O [Compound 4]
Experiment results (relative activation fold) PPARα (PPARα; 0.001 uM): 1.14 fold | Experiment results (relative activation fold) PPARα (PPARα; 0.01 uM): 1.20 fold | Experiment results (relative activation fold) PPARα (PPARα; 0.1 uM): 1.18 fold | Experiment results (relative activation fold) PPARα (PPARα; 1 uM): 1.65 fold | Experiment results (relative activation fold) PPARα (PPARα; 5 uM): 2.31 fold | Experiment results (relative activation fold) PPARα (PPARα; 10 uM): 2.96 fold | EC50 (PPARα): 5500 nM | Experiment results (relative activation fold) PPARδ (PPARδ; 0.001 uM): 1.45 fold | Experiment results (relative activation fold) PPARδ (PPARδ; 0.01 uM): 1.53 fold | Experiment results (relative activation fold) PPARδ (PPARδ; 0.1 uM): 2.25 fold | Experiment results (relative activation fold) PPARδ (PPARδ; 1 uM): 3.51 fold | Experiment results (relative activation fold) PPARδ (PPARδ; 5 uM): 4.22 fold | Experiment results (relative activation fold) PPARδ (PPARδ; 10 uM): 4.60 fold | EC50 (PPARδ): 851 nM | Experiment results (relative activation fold) PPARγ (PPARγ; 0.001 uM): 2.70 fold | Experiment results (relative activation fold) PPARγ (PPARγ; 0.01 uM): 3.78 fold | Experiment results (relative activation fold) PPARγ (PPARγ; 0.1 uM): 3.81 fold | Experiment results (relative activation fold) PPARγ (PPARγ; 1 uM): 5.17 fold | Experiment results (relative activation fold) PPARγ (PPARγ; 5 uM): 4.19 fold | Experiment results (relative activation fold) PPARγ (PPARγ; 10 uM): 5.88 fold | EC50 (PPARγ): 89 nM

CCc1cc(OCCc2nc(-c3ccc(C)cc3)oc2C)ccc1CCC(=O)O [Compound 5]
Experiment results (relative activation fold) PPARα (PPARα; 0.001 uM): 1.33 fold | Experiment results (relative activation fold) PPARα (PPARα; 0.01 uM): 1.45 fold | Experiment results (relative activation fold) PPARα (PPARα; 0.1 uM): 1.37 fold | Experiment results (relative activation fold) PPARα (PPARα; 1 uM): 1.58 fold | Experiment results (relative activation fold) PPARα (PPARα; 5 uM): 1.98 fold | Experiment results (relative activation fold) PPARα (PPARα; 10 uM): 1.91 fold | EC50 (PPARα): 1180 nM | activation effect on PPARα receptor (in words) (PPARα; screening results): better activation effects | Experiment results (relative activation fold) PPARδ (PPARδ; 0.001 uM): 1.57 fold | Experiment results (relative activation fold) PPARδ (PPARδ; 0.01 uM): 2.44 fold | Experiment results (relative activation fold) PPARδ (PPARδ; 0.1 uM): 3.61 fold | Experiment results (relative activation fold) PPARδ (PPARδ; 1 uM): 3.69 fold | Experiment results (relative activation fold) PPARδ (PPARδ; 5 uM): 3.57 fold | Experiment results (relative activation fold) PPARδ (PPARδ; 10 uM): 4.64 fold | EC50 (PPARδ): 7 nM | activation effect on PPARδ receptor (in words) (PPARδ; screening results): better activation effects | Experiment results (relative activation fold) PPARγ (PPARγ; 0.001 uM): 1.98 fold | Experiment results (relative activation fold) PPARγ (PPARγ; 0.01 uM): 2.99 fold | Experiment results (relative activation fold) PPARγ (PPARγ; 0.1 uM): 3.75 fold | Experiment results (relative activation fold) PPARγ (PPARγ; 1 uM): 3.95 fold | Experiment results (relative activation fold) PPARγ (PPARγ; 5 uM): 3.82 fold | Experiment results (relative activation fold) PPARγ (PPARγ; 10 uM): 4.11 fold | EC50 (PPARγ): 4 nM | activation effect on PPARγ receptor (in words) (PPARγ; screening results): better activation effects

CCc1cc(OCCc2nc(-c3ccc(-c4nnn[nH]4)cc3)oc2C)ccc1CCC(=O)O [Compound 6]
Experiment results (relative activation fold) PPARα (PPARα; 0.001 uM): 1.33 fold | Experiment results (relative activation fold) PPARα (PPARα; 0.01 uM): 1.23 fold | Experiment results (relative activation fold) PPARα (PPARα; 0.1 uM): 1.27 fold | Experiment results (relative activation fold) PPARα (PPARα; 1 uM): 1.53 fold | Experiment results (relative activation fold) PPARα (PPARα; 5 uM): 1.76 fold | Experiment results (relative activation fold) PPARα (PPARα; 10 uM): 1.96 fold | EC50 (PPARα): 2630 nM | Experiment results (relative activation fold) PPARδ (PPARδ; 0.001 uM): 0.99 fold | Experiment results (relative activation fold) PPARδ (PPARδ; 0.01 uM): 0.87 fold | Experiment results (relative activation fold) PPARδ (PPARδ; 0.1 uM): 1.09 fold | Experiment results (relative activation fold) PPARδ (PPARδ; 1 uM): 1.11 fold | Experiment results (relative activation fold) PPARδ (PPARδ; 5 uM): 1.27 fold | Experiment results (relative activation fold) PPARδ (PPARδ; 10 uM): 1.63 fold | EC50 (PPARδ): 6760 nM | Experiment results (relative activation fold) PPARγ (PPARγ; 0.001 uM): 0.92 fold | Experiment results (relative activation fold) PPARγ (PPARγ; 0.01 uM): 1.02 fold | Experiment results (relative activation fold) PPARγ (PPARγ; 0.1 uM): 1.04 fold | Experiment results (relative activation fold) PPARγ (PPARγ; 1 uM): 1.74 fold | Experiment results (relative activation fold) PPARγ (PPARγ; 5 uM): 1.63 fold | Experiment results (relative activation fold) PPARγ (PPARγ; 10 uM): 2.53 fold | EC50 (PPARγ): 6760 nM
